This is an account of results in patent US20240043439A1, “COMPOUNDS AS C5AR INHIBITORS” (Kira Pharmaceuticals (Suzhou) Ltd., priority 2020, published 2024).

What is called IC50 is the concentration that gives 50% inhibition.

The target in test [1] is human C5a receptor (C5aR) (Homo sapiens (Human), UniProt P21730). In words: Inhibition of C5a-C5aR binding (biotinylated human C5a, U937/C5aR cells, FACS). In short, it runs like this: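 U937 cells stably expressing human C5aR, 3×10^6 cells/ml in PBS+0.1% BSA, were co-incubated with compound and biotinylated human C5a (30 nM, working solution) on ice for 120 min. Bound ligand was stained with FITC-streptavidin for 30 min on ice and read by flow cytometry.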
human C5a receptor (C5aR), sequence (P21730 whole entry): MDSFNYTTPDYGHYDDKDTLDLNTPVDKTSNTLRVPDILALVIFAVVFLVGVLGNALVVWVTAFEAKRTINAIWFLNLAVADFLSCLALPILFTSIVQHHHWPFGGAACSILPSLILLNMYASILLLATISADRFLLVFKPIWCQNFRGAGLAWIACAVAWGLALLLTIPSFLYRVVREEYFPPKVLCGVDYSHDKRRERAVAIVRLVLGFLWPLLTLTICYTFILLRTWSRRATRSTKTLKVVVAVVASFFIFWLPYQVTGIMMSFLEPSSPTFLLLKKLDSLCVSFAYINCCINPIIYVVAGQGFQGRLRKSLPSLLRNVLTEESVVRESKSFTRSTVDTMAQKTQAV

Test [2] addresses T1, C5aR (Homo sapiens (Human), UniProt P21730). Kind of test: Calcium mobilization (U937/C5aR or HEK293/C5aR cells, FLIPR). In kind it is cell-based. To be noted: agonist human C5a at EC80, FLIPR. In outline:
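U937 or HEK293 cells expressing human C5aR, plated overnight, then preincubated 60 min with compound. After Fluo-4 Direct dye loading (50 min at 37 °C, 10 min at room temperature), intracellular calcium rise on FLIPR was triggered by human C5a agonist at EC80.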

Test [3] has as its target T1, C5aR. In words: Inhibition of C5a-C5aR binding determined by cell migration assay (U937/C5aR cells). The class given is cell-based. To be noted: U937/C5aR cell migration towards human C5a, 180 min. The procedure:
Migration assay was performed by using polycarbonate membrane with 3.0 µm pore (Corning). U937/C5aR cells were collected and washed twice by PBS; cells were suspended in Hank's balanced salt solution (HBSS)+1% FBS buffer at the density of 6×10^6 cells/ml. Cells were premixed with compound and added to insert well, ligand human C5a and compound were added to bottom well in order, gently mix, incubate for 30 min at 37° C., […]. Put insert plate into bottom well, migrate for 180 min at 37° C., […]. Gently remove the insert well, add 50 μl CellTiter-Glo (Promega), gently shaking for 5 min at room temperature, transfer 150 μl mixture to black plate and read luminescence intensity by
microplate reader (BioTek).

T1 sequence (P21730 whole entry): as above

For `Cc1cccc(F)c1C(=O)N1C(c2ccc(NC3CCCC3)cc2)C(C(=O)Nc2ccc3c(c2)CCN(C)C3)C[C@@H]2CCC[C@@H]21` (relative stereo) [Compound 77, cis-2-(4-(cyclopentylamino)phenyl)-1-(2-fluoro-6-methylbenzoyl)-N-(2-methyl-1,2,3,4-tetrahydroisoquinolin-6-yl)octahydro-1H-cyclopenta[b]pyridine-3-carboxamide], the values for the half-inhibitory concentration (IC50) (in test [1]; on C5aR [2]; at C5aR [3]) were 2000 to 5000 nM, 2000 to 10000 nM and more than 5000 nM, respectively.
For `Cc1cccc(F)c1C(=O)N1C(c2ccc(NC3CCCC3)cc2)C(C(=O)Nc2cnc3cnn(C)c3c2)C[C@@H]2CCC[C@@H]21` (relative stereo) [Compound 78, cis-2-(4-(cyclopentylamino)phenyl)-1-(2-fluoro-6-methylbenzoyl)-N-(1-methyl-1H-pyrazolo[4,3-b]pyridin-6-yl)octahydro-1H-cyclopenta[b]pyridine-3-carboxamide] the same measures were 50 to 500 nM, 500 to 2000 nM and 50 to 500 nM.
Consider `Cc1ccc(NC(=O)C2C[C@@H]3CCC[C@@H]3N(C(=O)c3c(C)cccc3F)C2c2ccc(NC3CCOCC3)cc2)cc1C(F)(F)F` (relative stereo) [Compound 88, cis-1-(2-fluoro-6-methylbenzoyl)-N-(4-methyl-3-(trifluoromethyl)phenyl)-2-(4-((tetrahydro-2H-pyran-4-yl)amino)phenyl)octahydro-1H-cyclopenta[b]pyridine-3-carboxamide], for which the figures for the IC50 (in test [1]; on C5aR [2]; on C5aR [3]) were 50 to 500 nM, less than 50 nM and less than 50 nM, respectively.
For `Cc1cccc(F)c1C(=O)N1C2CCC[C@@H]2C[C@H](C(=O)Nc2ccc3cccnc3c2)[C@@H]1c1ccc(NC2CCOCC2)cc1` (relative stereo) [Compound 90, cis-1-(2-fluoro-6-methylbenzoyl)-N-(quinolin-7-yl)-2-(4-((tetrahydro-2H-pyran-4-yl)amino)phenyl)octahydro-1H-cyclopenta[b]pyridine-3-carboxamide], the concentration for half-maximal inhibition (IC50) (in test [1]; at C5aR [2]; on C5aR [3]) was 50 to 500 nM in each case.
For `Cc1ccc(NC(=O)C2C[C@@H]3CCC[C@@H]3N(C(=O)c3cocn3)C2c2ccc(NC3CCCC3)cc2)cc1C(F)(F)F` (relative stereo) [Compound 110, cis-2-(4-(cyclopentylamino)phenyl)-N-(4-methyl-3-(trifluoromethyl)phenyl)-1-(oxazole-4-carbonyl)octahydro-1H-cyclopenta[b]pyridine-3-carboxamide], the values for the IC50 (in test [1]; on C5aR [2]; on C5aR [3]) were 50 to 500 nM, more than 10000 nM and 50 to 500 nM, respectively.
`Cc1ccc(NC(=O)C2C[C@H]3CCC[C@H]3N(C(=O)C3CCOCC3)[C@H]2c2ccc(NC3CCCC3)cc2)cc1C(F)(F)F` (relative stereo) [Compound 111, cis-2-(4-(cyclopentylamino)phenyl)-N-(4-methyl-3-(trifluoromethyl)phenyl)-1-(tetrahydro-2H-pyran-4-carbonyl)octahydro-1H-cyclopenta[b]pyridine-3-carboxamide]: the 50% inhibitory concentration (IC50) in test [1] lay in the range of 50 to 500 nM; on C5aR [2] it was 2000 to 10000 nM; on C5aR [3], 50 to 500 nM.
With `Cc1ccc(NC(=O)C2C[C@H]3CCC[C@H]3N(C(=O)c3cscn3)C2c2ccc(NC3CCCC3)cc2)cc1C(F)(F)F` (relative stereo) [Compound 114, cis-2-(4-(cyclopentylamino)phenyl)-N-(4-methyl-3-(trifluoromethyl)phenyl)-1-(thiazole-4-carbonyl)octahydro-1H-cyclopenta[b]pyridine-3-carboxamide], the half-inhibitory concentration (IC50) in test [1] is less than 50 nM; at C5aR [2], more than 10000 nM; on C5aR [3] it was 50 to 500 nM.
Take `Cc1ccc(NC(=O)C2C[C@H]3CCC[C@H]3N(C(=O)c3cncnc3)C2c2ccc(NC3CCCC3)cc2)cc1C(F)(F)F` (relative stereo) [Compound 115, cis-2-(4-(cyclopentylamino)phenyl)-N-(4-methyl-3-(trifluoromethyl)phenyl)-1-(pyrimidine-5-carbonyl)octahydro-1H-cyclopenta[b]pyridine-3-carboxamide]: the IC50 was 50 to 500 nM in test [1], more than 10000 nM on C5aR [2] and 50 to 500 nM at C5aR [3].
As to `Cc1ccc(NC(=O)C2C[C@@H]3COC[C@@H]3N(C(=O)c3c(C)cccc3F)C2c2ccc(NC3CCCC3)cc2)cc1C(F)(F)F` (relative stereo) [Compound 118, cis-2-(4-(cyclopentylamino)phenyl)-1-(2-fluoro-6-methylbenzoyl)-N-(4-methyl-3-(trifluoromethyl)phenyl)octahydrofuro[3,4-b]pyridine-3-carboxamide], the half-inhibitory concentration (IC50) in test [1] was less than 50 nM; on C5aR [2], 50 to 500 nM; at C5aR [3], less than 50 nM.
Take `Cc1cccc(F)c1C(=O)N1C(c2ccc(NC3CCCC3)cc2)C(C(=O)Nc2ccc3c(cnn3C)c2)C[C@@H]2COC[C@@H]21` (relative stereo) [Compound 121, cis-2-(4-(cyclopentylamino)phenyl)-1-(2-fluoro-6-methylbenzoyl)-N-(1-methyl-1H-indazol-5-yl)octahydrofuro[3,4-b]pyridine-3-carboxamide]: the half-inhibitory concentration (IC50) (in test [1]; at C5aR [2]; on C5aR [3]) was 50 to 500 nM each time.
With `Cc1ccc(NC(=O)C2C[C@@H]3COC[C@@H]3N(C(=O)c3c(C)cccc3F)C2c2ccc(CN3CCOCC3(C)C)cc2)cc1C(F)(F)F` (relative stereo) [Compound 141, cis-2-(4-((3,3-dimethylmorpholino)methyl)phenyl)-1-(2-fluoro-6-methylbenzoyl)-N-(4-methyl-3-(trifluoromethyl)phenyl)octahydrofuro[3,4-b]pyridine-3-carboxamide], the IC50 lay within 50 to 500 nM in test [1], 2000 to 10000 nM on C5aR [2] and 500 to 2000 nM at C5aR [3].
Taken in the same sequence, the figures for `Cc1cccc(F)c1C(=O)N1C(c2ccc(NC3CCCC3)cc2)C(C(=O)Nc2ccc3c(cnn3C)c2)C[C@@H]2CCC[C@@H]21` (relative stereo) [Compound 147, cis-2-(4-(cyclopentylamino)phenyl)-1-(2-fluoro-6-methylbenzoyl)-N-(1-methyl-1H-indazol-5-yl)octahydro-1H-cyclopenta[b]pyridine-3-carboxamide] were less than 50 nM, 50 to 500 nM and 50 to 500 nM.
With `Cc1cccc(F)c1C(=O)N1C(c2ccc(NC3CCOCC3)cc2)C(C(=O)Nc2ccc3c(cnn3C)c2)C[C@@H]2CCC[C@@H]21` (relative stereo) [Compound 158, cis-1-(2-fluoro-6-methylbenzoyl)-N-(1-methyl-1H-indazol-5-yl)-2-(4-((tetrahydro-2H-pyran-4-yl)amino)phenyl)octahydro-1H-cyclopenta[b]pyridine-3-carboxamide], the values for the IC50 (in test [1]; on C5aR [2]; on C5aR [3]) were less than 50 nM, 50 to 500 nM and less than 50 nM, respectively.
Regarding `Cc1ccc(NC(=O)[C@H]2OCCN(C(=O)c3c(C)cccc3F)[C@H]2c2ccc(NC3CCCC3)cc2)cc1C(F)(F)F` (relative stereo) [Compound 187, cis-3-(4-(cyclopentylamino)phenyl)-4-(2-fluoro-6-methylbenzoyl)-N-(4-methyl-3-(trifluoromethyl)phenyl)morpholine-2-carboxamide], the IC50 in test [1] was in the range of 50 to 500 nM; on C5aR [2], 2000 to 10000 nM; on C5aR [3], 50 to 500 nM.
